Data taken from patent US5218115A, “Cholecystokinin antagonists” (Merck & Co., Inc., priority 1992, dated 1993).
“Also recorded” adds a separate entry of the source. Where two headings read alike, the source gives them in different places. Square brackets hold non-standard residues; d marks the D form. Peptide text beside a SMILES is read from it. * marks the point of attachment. sY = N[C@@H](Cc1ccc(OS(=O)(=O)O)cc1)C(=O)O; Cbz = O=C(OCc1ccccc1)*; Boc = CC(C)(C)OC(=O)*

Experiments:
CCK receptor = details: in words; cited from earlier work
CCK receptor (pancreas) = target: T1, CCK receptor (pancreas) (Rattus norvegicus, UniProt P30551); assay: CCK Receptor Binding (Pancreas), inhibition of 125I-CCK-8 binding; design: species or system Male Sprague-Dawley rats; details: 125I-CCK-8 50 pM, 25° C., 2 hours
T1 construct: The whole pancreas was dissected free of fat tissue and was homogenized; from tissue; host or cells: rat pancreas membranes (male Sprague-Dawley)
T1 sequence (P30551 1-444): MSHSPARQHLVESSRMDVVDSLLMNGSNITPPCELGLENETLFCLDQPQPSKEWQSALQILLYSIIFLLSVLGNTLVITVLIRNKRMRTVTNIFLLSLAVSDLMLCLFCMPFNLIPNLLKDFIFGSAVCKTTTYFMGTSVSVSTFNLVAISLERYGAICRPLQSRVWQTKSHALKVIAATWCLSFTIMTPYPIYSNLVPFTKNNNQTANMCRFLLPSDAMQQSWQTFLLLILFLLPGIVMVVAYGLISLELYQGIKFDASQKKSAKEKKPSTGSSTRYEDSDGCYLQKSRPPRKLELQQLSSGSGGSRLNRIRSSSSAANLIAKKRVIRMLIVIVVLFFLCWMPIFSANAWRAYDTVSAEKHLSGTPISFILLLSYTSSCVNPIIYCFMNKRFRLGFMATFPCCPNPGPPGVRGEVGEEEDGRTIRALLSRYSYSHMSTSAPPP
Protocol: CCK-8 sulphated was radiolabelled with ^125 I-Bolton Hunter reagent (2000 Ci/mmole). Receptor binding was performed according to Chang and Lotti (Proc. Natl. Acad. Sci. 83, 4923-4926, 1986) with minor modifications.
Male Sprague-Dawley rats (150-200 g) were sacrificed by decapitation. The whole pancreas was dissected free of fat tissue and was homogenized in 25 volumes of ice-cold 10 mM Hepes buffer with 0.1% soya bean trypsin inhibitor (pH 7.4 at 25° C.) with a Kinematica Polytron. The homogenates were centrifuged at 47,800 g for 10 min. Pellets were resuspended in 10 volumes of binding assay buffer (20 mM Hepes, 1 mM EGTA, 5 mM MgCl2, 150 mM NaCl, bacitracin 0.25 mg/ml, soya bean trypsin inhibitor 0.1 mg/ml, and bovine serum albumin 2 mg/ml, pH 6.5 at 25° C.) using a teflon homogenizer, 15 strokes at 500 rpm. The homogenate was further diluted in binding assay buffer to give a final concentration of 0.5 mg original wet weight/1 ml buffer. […] All assays were run in duplicate. […] The radioactivity on the filters was counted with a LKB gamma counter.
(§1) Drug displacement studies were performed with at least 10 concentrations of compounds of formula 1 and the IC50 values were determined by regression analysis.

CCK receptor (brain) = target: T2, CCK receptor (brain) (Cavia porcellus, UniProt H0VZC5); assay: CCK Receptor Binding (Brain), inhibition of 125I-CCK-8 binding; design: species or system Male Hartley guinea pigs
T2 construct: the cortex was removed and homogenized in 25 mL ice-cold 0.32M sucrose; from tissue; host or cells: guinea pig brain cortex P2 membranes (male Hartley)
T2 sequence (H0VZC5 1-426): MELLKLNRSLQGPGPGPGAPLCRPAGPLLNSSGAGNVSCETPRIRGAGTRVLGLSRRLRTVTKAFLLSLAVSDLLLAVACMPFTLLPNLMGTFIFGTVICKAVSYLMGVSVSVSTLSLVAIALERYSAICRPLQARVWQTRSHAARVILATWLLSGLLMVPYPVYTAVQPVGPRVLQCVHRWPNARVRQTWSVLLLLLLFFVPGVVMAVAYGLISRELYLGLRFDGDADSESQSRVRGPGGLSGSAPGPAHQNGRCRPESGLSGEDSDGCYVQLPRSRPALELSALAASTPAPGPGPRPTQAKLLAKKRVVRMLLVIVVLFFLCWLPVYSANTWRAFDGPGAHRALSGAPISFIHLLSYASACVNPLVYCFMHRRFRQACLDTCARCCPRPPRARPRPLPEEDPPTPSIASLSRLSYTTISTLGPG
Protocol: CCK-8 sulphated was radiolabelled and the binding was performed according to the description for the pancreas method with minor modifications.
Male Hartley guinea pigs (300-500 g) were sacrificed by decapitation and the cortex was removed and homogenized in 25 mL ice-cold 0.32M sucrose. The homogenates were centrifuged at 1000 g for 10 minutes and the resulting supernatant was recentrifuged at 20,000 g for 20 minutes. […] All assays were run in duplicate. The reaction mixtures were incubated at 25° C. for 2 hours and then the reaction was terminated on Whatman GF/C filters by rapid filtration (Brandell 24 well cell Harvester) with 3×5 ml washes of cold 100 mM NaCl. The radioactivity on the filters was then counted with a LKB gamma counter.
as §1

[1] = target: T3, Gastrin receptor (gastric glands) (Cavia porcellus, UniProt H0VZC5); assay: Gastrin Receptor Binding in Guinea Pig Gastric Glands, 125I-gastrin; design: species or system guinea pigs, male Hartley; details: 125I-gastrin 0.1 nM, 25° C., 30 minutes, read-out: CCK RECEPTOR BINDING RESULTS IC50, 125I-Gastrin Gastric Glands
T3 construct: from tissue; host or cells: guinea pig gastric mucosal glands (male Hartley)
T3 sequence (H0VZC5 1-426): T2 sequence (H0VZC5 1-426)
Protocol: Gastrin antagonist activity of compounds of Formula I is determined using the following assay.
A. Gastrin Receptor Binding in Guinea Pig Gastric Glands
Guinea pig gastric mucosal glands were prepared by the procedure of Chang et al., Science 230, 177-179 (1985) with slight modification. Gastric mucosa from guinea pigs (300-500 g body weight, male Hartley) were isolated by scraping with a glass slide after washing stomachs in ice-cold, aerated buffer consisting of the following: 130 mM NaCl, 12 mM NaHCO3, 3 mM NaH2 PO4, 3 mM Na2 HPO4, 3 mM K2 HPO4, 2 mM MgSO4, 1 mM CaCl2, 5 mM glucose and 4 mM L-glutamine, 50 mM HEPES, 0.25 mg/ml bacitracin, 0.10 mg/ml soya bean trypsin inhibitor, 0.1 mg/ml bovine serum albumin, at pH 6.5, and then incubated in a 37° C. shaking water bath for 40 minutes in buffer containing 1 mg/ml collagenase and bubbled with 95% O2 and 5% CO2. The tissues were passed twice through a 5 ml syringe to liberate the gastric glands, and then filtered through Nitex #202 gauge nylon mesh. The filtered glands were centrifuged at 272 g for 5 minutes and washed twice by resuspension in 25 ml buffer and centrifugation.
The washed guinea pig gastric glands prepared as above were resuspended in 25 ml of standard buffer. […] The radioactivity on the filters was measured using a LKB gamma counter.

brain CCK (CCK-B) = details: in words; cited from earlier work
gastrin = details: in words, in vitro; cited from earlier work
[2] = guinea pig cortex, 125I-CCK-8 50 pM, 25° C., 2 hours, read-out: CCK RECEPTOR BINDING RESULTS IC50, 125I-CCK Brain

SMILES	CCK antagonist activity (CCK receptor)	IC50 (CCK receptor (brain); [2]) [nM]	other results
CSCC[C@H](NC(=O)OC(C)(C)C)C(=O)N[C@@H](CC(=O)O)C(=O)N[C@@H](Cc1ccccc1)C(N)=O [Boc-Met-Asp-Phe-NH2] (Boc-Met-Asp-Phe-NH2)	can function as CCK antagonists	–	–
CCCC(=O)Nc1nc2c(ncn2[C@@H]2O[C@@H]3COP(=O)(O)O[C@H]3[C@H]2OC(=O)CCC)c(=O)[nH]1 [dibutyryl cyclic GMP]	most potent	–	–
CSCC[C@H](N)C(=O)N[C@@H](CC(=O)O)C(=O)N[C@@H](Cc1ccccc1)C(N)=O [Met-Asp-Phe-NH2] (H-Met-Asp-Phe-NH2)	can function as CCK antagonists	–	–
Cc1cccc(NC(=O)NC2N=C(c3ccccc3)c3ccccc3N(Cc3c[nH]cn3)C2=O)c1 (stereo not shown) [Example 1, N-{1,3-Dihydro-1-[1H-4-imidazolyl]methyl-2-oxo-5-phenyl-1H-1,4-benzodiazepin-3-yl}-N'-{[3-methylphenyl]-urea}]	–	7.9	IC50 (CCK receptor (pancreas)): 11 nM; IC50 [1]: 3.6 nM
Cc1cccc(NC(=O)NC2N=C(c3ccccc3)c3ccccc3N(Cc3ncc[nH]3)C2=O)c1 (stereo not shown) [Example 3, N-{1,3-Dihydro-1-[1H-2-imidazolyl]methyl-2-oxo-5-phenyl-1H-1,4-benzodiazepin-3-yl}-N'-{[3-methylphenyl]-urea}]	–	–	IC50 (CCK receptor (pancreas)): 258 nM; IC50 (CCK receptor (brain)): 58.9 nM
Cc1cccc(NC(=O)NC2N=C(c3ccccc3)c3ccccc3N(Cc3n[nH]c(C)n3)C2=O)c1 (racemic) [Example 4, N-{1,3-Dihydro-1-[5-(2-methyl-1,3,4-triazolo)-methylene]-2-oxo-5-phenyl-1H-1,4-benzodiazepin-3-yl}-N'-{[3-methylphenyl]-urea}]	–	10	–
O=C(Nc1cccc(-c2nn[nH]n2)c1)N[C@@H]1N=C(c2ccccc2)c2ccccc2N(CC(=O)N2CCCC2)C1=O [Example 2, N-{3-(R)-1,3-Dihydro-1-(pyrrolidinylcarbonyl)methyl-2-oxo-5-phenyl-1H-1,4-benzodiazepin-3(R)-yl}-N'-{[3-(1H-tetrazol-5-yl)phenyl]urea}]	–	0.12	–
Cc1cccc(NC(=O)N[C@@H]2N=C(c3ccccc3)c3ccccc3N(C)C2=O)c1 [(R)-N-(2,3-dihydro-1-methyl-2-oxo-5-phenyl-1H-1,4-benzodiazepin-3-yl)-N^1-(3-methylphenyl) urea]	–	–	CCK-B receptor antagonism / selectivity (brain CCK (CCK-B)): potent and selective antagonist of CCK-B receptors
CCCN(CCC)C(=O)C(CCC(=O)O)NC(=O)c1ccccc1 (stereo not shown) [proglumide]	–	–	gastrin antagonist activity (gastrin): very weak in vitro antagonists
CSCC[C@H](NC(=O)[C@H](Cc1ccc(OS(=O)(=O)O)cc1)NC(=O)OCc1ccccc1)C(=O)NCC(=O)N[C@@H](Cc1c[nH]c2ccccc12)C(=O)N[C@@H](CCSC)C(=O)N[C@@H](CC(=O)O)C(N)=O [Cbz-Tyr(SO3 H)-Met-Gly-Trp-Met-Asp-NH2] (Cbz-[sY]MGWMD-NH2)	can function as CCK antagonists; also recorded: partial agonist	–	–
